Laboratory results as given in publication PMC7311426, “An amphipathic peptide with antibiotic activity against multidrug-resistant Gram-negative bacteria” (Nature Communications, 2020).
Converted amounts (≈) assume the structure as drawn.

How the values were obtained:
[1] = tested on: P. aeruginosa clinical isolates; test: microbe, parasite or virus in culture
Summary of the method: (§1)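 MIC90 from CLSI broth microdilution (M07-A9) in two clinical-isolate panels. US panel (331 isolates, 2010-2012): AA139 diluted in 0.01% acetic acid/0.1% BSA. Worldwide panel (445 isolates, 2011-2013, four regions): CAMHB, with 0.002% Tween 80 added for AA139 and polymyxin B.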

[2] = tested on: E. coli clinical isolates; test: microbe, parasite or virus in culture
Summary of the method: as §1

[3] = tested on: K. pneumoniae clinical isolates; test: microbe, parasite or virus in culture
Summary of the method: as §1

P. aeruginosa = P. aeruginosa ATCC 27853; quality control range printed beside broth microdilution MIC of parent strain; cited from earlier work
[4] = Worldwide isolates 2011-2013, P. aeruginosa n = 111
[5] = Worldwide isolates 2011-2013, E. coli n = 112
[6] = Worldwide isolates 2011-2013, K. pneumoniae n = 114

C[C@@H](O)[C@H]1C(=O)N2C(C(=O)O)=C(S[C@@H]3CN[C@H](C(=O)N(C)C)C3)[C@H](C)[C@H]12 [Meropenem, meropenem, reference compound]
MIC90 ([1]; Pseudomonas aeruginosa, US isolates 2010–2012, P. aeruginosa Non-MDR, n = 41): 16 µg/mL (≈ 41.7 µM)
MIC90 ([1]; Pseudomonas aeruginosa, US isolates 2010–2012, P. aeruginosa XDR, n = 37): > 16 µg/mL
MIC50 [1, 4]: 1 µg/mL (≈ 2.61 µM)
MIC90 [1, 4]: > 16 µg/mL
MIC90 ([2]; Escherichia coli, US isolates 2010–2012, E. coli MDR, n = 31): 16 µg/mL (≈ 41.7 µM)
MIC90 ([2]; Escherichia coli, US isolates 2010–2012, E. coli Non-MDR, n = 24): 0.03 µg/mL (≈ 0.0782 µM)
MIC50 [2, 5]: ≤ 0.015 µg/mL
MIC90 [2, 5]: 0.03 µg/mL (≈ 0.0782 µM)
MIC90 ([3]; Klebsiella pneumoniae, US isolates 2010–2012, K. pneumoniae Non-MDR, n = 24): 0.06 µg/mL (≈ 0.156 µM)
MIC90 ([3]; Klebsiella pneumoniae, US isolates 2010–2012, K. pneumoniae XDR, n = 55): > 16 µg/mL
MIC50 [3, 6]: 0.03 µg/mL (≈ 0.0782 µM)
MIC90 [3, 6]: > 16 µg/mL
MIC Quality control range (P. aeruginosa): 0.12 to 1 µg/mL
